Data as given in the NIST ThermoML archive (doi:10.1021/je600519p).
Numbers after ± are expanded uncertainties.

Assay: refractive index (Na D-line) (dimensionless); xn = mol fraction of the nth substance listed
Details: 101 kPa, Liquid

CC(=O)c1ccccc1 [acetophenone] + CCCCCCO
refractive index
Details	293.15 K	303.15 K	313.15 K	323.15 K
x1 = 0.0498	1.4234 ± 0.0013	1.4196 ± 0.0013	1.4153 ± 0.0013	1.4113 ± 0.0013
x1 = 0.1009	1.4291 ± 0.0013	1.4253 ± 0.0013	1.421 ± 0.0013	1.417 ± 0.0013
x1 = 0.1517	1.4348 ± 0.0013	1.431 ± 0.0013	1.4267 ± 0.0013	1.4227 ± 0.0013
x1 = 0.2106	1.4415 ± 0.0013	1.4377 ± 0.0013	1.4334 ± 0.0013	1.4293 ± 0.0013
x1 = 0.2474	1.4457 ± 0.0013	1.4419 ± 0.0013	1.4376 ± 0.0013	1.4335 ± 0.0013
x1 = 0.3028	1.4521 ± 0.0013	1.4482 ± 0.0013	1.4439 ± 0.0013	1.4398 ± 0.0013
x1 = 0.3426	1.4567 ± 0.0013	1.4528 ± 0.0013	1.4484 ± 0.0013	1.4443 ± 0.0013
x1 = 0.3978	1.4631 ± 0.0013	1.4591 ± 0.0013	1.4547 ± 0.0013	1.4506 ± 0.0013
x1 = 0.4512	1.4693 ± 0.0013	1.4653 ± 0.0013	1.4608 ± 0.0013	1.4567 ± 0.0013
x1 = 0.4985	1.4748 ± 0.0013	1.4707 ± 0.0013	1.4662 ± 0.0013	1.4621 ± 0.0013
x1 = 0.5526	1.4811 ± 0.0013	1.4769 ± 0.0013	1.4724 ± 0.0013	1.4682 ± 0.0013
x1 = 0.6071	1.4874 ± 0.0013	1.4832 ± 0.0013	1.4786 ± 0.0013	1.4743 ± 0.0013
x1 = 0.6491	1.4923 ± 0.0013	1.488 ± 0.0013	1.4834 ± 0.0013	1.479 ± 0.0013
x1 = 0.7101	1.4994 ± 0.0013	1.495 ± 0.0013	1.4903 ± 0.0013	1.4858 ± 0.0013
x1 = 0.7485	1.5039 ± 0.0013	1.4994 ± 0.0013	1.4947 ± 0.0013	1.4901 ± 0.0013
x1 = 0.8019	1.5101 ± 0.0013	1.5056 ± 0.0013	1.5008 ± 0.0013	1.4962 ± 0.0013
x1 = 0.8521	1.516 ± 0.0013	1.5114 ± 0.0013	1.5066 ± 0.0013	1.5019 ± 0.0013
x1 = 0.9045	1.5222 ± 0.0013	1.5175 ± 0.0013	1.5126 ± 0.0013	1.5079 ± 0.0013
x1 = 0.9554	1.5283 ± 0.0013	1.5235 ± 0.0013	1.5185 ± 0.0013	1.5137 ± 0.0013
